Source: patent US20260174739A1 (priority 2022, published 2026)

Assays:
[1] = In vivo metabolism (pharmacokinetic) experiment in mice; design: species or system male ICR mice; details: male, ICR, mouse, po, 10 mg/kg, male ICR mice
How it was run: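 Fasted (12 h) male ICR mice received compound in 5% DMSO/5% Solutol HS15/90% saline at 2.5 mg/kg iv or 10 mg/kg po. Plasma and brain sampled 0.083–8 h (n=3 per time point) and analysed by LC-MS/MS. Parameters derived by non-compartmental analysis.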

[2] = Human liver microsome assay (metabolic stability); format: in vitro ADME; details: pH 7.4; human liver microsomes 0.2 mg/mL, 1 μM test drug, NADPH, 37° C.; read-out: Half-life (t1/2, min)
How it was run: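 Human liver microsomes 0.2 mg/mL with 1 μM compound, 3.0 mM MgCl2 and 2.0 mM NADPH in 0.1 M phosphate pH 7.4, 37 °C; sampled at 0–60 min. LC-MS/MS peak-area ratio to internal standard; T1/2 and CLint from slope of ln residual versus time.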

[3] = target: human DAT (Homo sapiens, UniProt Q01959); assay: DAT transporter inhibitory activity test (neurotransmitter transporter uptake assay kit); format: cell-based
Chain of human DAT (Q01959 whole entry): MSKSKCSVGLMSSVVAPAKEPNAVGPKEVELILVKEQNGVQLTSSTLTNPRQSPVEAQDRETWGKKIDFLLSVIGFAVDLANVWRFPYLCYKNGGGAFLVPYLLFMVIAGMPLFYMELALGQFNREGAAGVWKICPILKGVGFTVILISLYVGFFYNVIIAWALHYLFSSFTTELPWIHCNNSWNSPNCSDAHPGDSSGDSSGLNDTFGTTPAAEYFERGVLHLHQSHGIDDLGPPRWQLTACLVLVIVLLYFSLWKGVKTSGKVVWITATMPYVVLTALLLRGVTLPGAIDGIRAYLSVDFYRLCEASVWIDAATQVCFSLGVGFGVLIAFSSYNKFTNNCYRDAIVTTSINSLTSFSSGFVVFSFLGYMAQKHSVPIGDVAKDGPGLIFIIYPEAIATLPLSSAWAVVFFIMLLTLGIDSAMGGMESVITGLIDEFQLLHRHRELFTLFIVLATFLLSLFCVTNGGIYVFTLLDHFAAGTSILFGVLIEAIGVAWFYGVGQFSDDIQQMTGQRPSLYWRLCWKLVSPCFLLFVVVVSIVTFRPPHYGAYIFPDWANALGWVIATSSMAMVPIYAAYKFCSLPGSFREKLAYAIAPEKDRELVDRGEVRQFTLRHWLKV

## CCNC1(c2ccccc2)CCc2nc(N)sc2C1 (racemic) [rac-A5, N^6-ethyl-6-phenyl-4,5,6,7-tetrahydrobenzothiazole-2,6-diamine]
[1]; oral 10 mg/kg vs iv 2.5 mg/kg, read-out: F (%)
  bioavailability: 63%
[1]; oral 10 mg/kg, plasma, read-out: AUC0-inf(po)
  AUC(0-inf): 1010 ng·h/mL
[1]; oral 10 mg/kg, plasma, read-out: Cmax (po)
  Cmax: 250 ng/mL
[1]; oral 10 mg/kg, plasma, read-out: T1/2 (po) (converted)
  half-life: 2.43 h
[2]
  half-life at 1 μM: > 120 min
[3]
  IC50: 2000 nM
